Experimental data taken from patent US20210005278A1, “SYSTEMS AND METHODS FOR PREDICTIVE NETWORK MODELING FOR COMPUTATIONAL SYSTEMS, BIOLOGY AND DRUG TARGET DISCOVERY” (ARIZONA BOARD OF REGENTS ON BEHALF OF THE UNIVERSITY OF …, priority 2018, published 2021).
Entries after “also recorded” stand apart in the source; their conditions may differ.

Tests used:
[1] = test system: human adipocytes (differentiated SGBS cells); test: Insulin mediated glucose uptake assay in mature human adipocytes (differentiated SGBS); format: cell-based; conditions: 24 hours pretreatment 10 nM-10 uM, 100 nM insulin stimulation
Experimental: For adipogenic differentiation SGBS cells were grown to confluence and subjected to a two-step differentiation process. […] Afterwards, cells were exposed to DMEM/F12 supplemented with 0.01 mg/mL of transferrin, […] of insulin, 100 nM cortisol, and 0.2 nM 3,3′,5-Triiodo-L-thyronine for additional 12 days. HMCL-7304 cells were differentiated in presence of SKMC differentiation medium (PromoCell) for 4-5 days before glucose uptake was performed. […] After the preincubation, the cells were starved for 2 hours prior to 30 minutes of 100 nM insulin stimulation at 37 degrees. […] The cells were then washed with PBS, harvested in 300 uL of M-PER lysis buffer (ThermoFisher), and then added to scintillation vials containing 4.75 mL of scintillation fluid (Perk Elmer). Radioactive counts were determined with a scintillation counter (Model ID: Beckman LS6500). Excess samples were subjected to BCA assay for protein quantification and normalization of radioactive counts. All samples were represented as fold change compared to the unstimulated (no insulin) condition.

SGBS cells = test: Adipogenic differentiation assay (Oil Red O) in SGBS cells; format: cell-based, human; conditions: inhibitor added at day 0 of differentiation, 10 nM-10 uM
Experimental: For adipogenic differentiation SGBS cells were grown to confluence and subjected to a two-step differentiation process. […] Afterwards, cells were exposed to DMEM/F12 supplemented with 0.01 mg/mL of transferrin, […] of insulin, 100 nM cortisol, and 0.2 nM 3,3′,5-Triiodo-L-thyronine for additional 12 days. HMCL-7304 cells were differentiated in presence of SKMC differentiation medium (PromoCell) for 4-5 days before glucose uptake was performed. […] Differentiation quantification was performed with Oil Red 0. Differentiated SGBS cells were fixed with 10% formalin for 10 minutes at room temperature. After washing with 60% isopropanol, samples were incubated in Oil Red 0 (Sigma-Aldrich) for 10 minutes at room temperature. Oil Red 0 was eluted with 100% isopropanol for 10 minutes. The solution was then transferred into a 96-well plate and absorbance measured at 500nm.

human SGBS preadipocytes = test: Growth assay in human SGBS preadipocytes (crystal violet); format: cell-based; conditions: 12 to 14 days, 10 nM-10 uM
Experimental: (§1) After the treatment, the cells were fixed in cold methanol for 15 minutes and stained with crystal violet for 10 minutes. Dye excess was washed with water and pictures taken immediately afterwards.

human SKMCs (HMCL-7304) = test: Growth assay in human SKMCs (crystal violet); format: cell-based; conditions: 12 to 14 days, 10 nM-10 uM
Experimental: as §1

iPSC lines = test: HMGCR inhibition in iPSC lines, RNA-seq differential expression; format: cell-based, human; conditions: 1 uM, 12 h
Experimental: Previous efforts have validated predictive networks through similar approaches.
For the expression residuals used for the co-expression and predictive network analyses, 2 analysis streams were adopted: one where there was use of all samples without adjusting for patient ID (AS) and one where there was an averaging of residuals per patient (ApP). Differentially expressed genes were determined using a linear model, as implemented in the 1mFit function from the limma package v3.18.13 in R. Statistical significance was assessed using a cut-off of 0.05 on FDR adjusted p-values.
iPSCs from 6 IS and 6 IR individuals were maintained in feeder-free conditions using mTesr1 (Stem Cell technologies, Inc) supplemented with 1 mM L-Glutamine, 1 mM Penicillin-Streptomycin, 0.1 μ/ml Fungizone.) on 5% matrigel coated 6-well TC plates. For passaging, cells were washed once with PBS and treated with pre-warmed 1 mM EDTA (Sigma), incubated at 37 degrees for 1-5 minutes, and resuspended in fresh mTesr1 medium 2 μM Thiazovivin (Millipore). After 12 hours incubation in Thiazovivin, medium was changed daily with fresh mTesr1. […] Cells were washed once in PBS and harvested for RNA extraction using PureLInk RNA mini kit (Thermo Fisher Scientific). Total RNA was quantified using a Nanodrop (Thermo Scientific). RNA samples with a A260/280 ratio <1.8 or >2.3 were excluded from further processing and the RNA was sequenced using the Illumina HiSeq 2500 system.

Structure (SMILES)	insulin mediated glucose uptake [1]	differentiation efficiency (adipogenesis, Oil Red O absorbance at 500 nm) (SGBS cells)	preadipocyte growth (human SGBS preadipocytes)	cell proliferation in SKMCs (human SKMCs (HMCL-7304))	number of DE genes, treated vs untreated samples (iPSC lines; IR iPSC group only)	number of DE genes, treated vs untreated samples (iPSC lines; IS iPSC group only)	number of DE genes, treated vs untreated samples (iPSC lines; all iPSC lines (6 IR, 6 IS))
CN(C/C=C/C#CC(C)(C)C)Cc1cccc2ccccc12 [terbinafine]	decrease insulin mediated glucose uptake	only HMGCR inhibition demonstrates a detectable decrease	only HMGCR inhibition demonstrates a detectable decrease	only a significant effect on glucose uptake	–	–	–
CC(C)c1c(C(=O)Nc2ccccc2)c(-c2ccccc2)c(-c2ccc(F)cc2)n1CC[C@@H](O)C[C@@H](O)CC(=O)O [atorvastatin]	–	–	detectable decrease	inhibits; also recorded: affected	785	711	3205
NCCCC(O)(P(=O)(O)O)P(=O)(O)O [alendronate]	–	–	only HMGCR inhibition demonstrates a detectable decrease	only a significant effect on glucose uptake	–	–	–
